Test [1] deals with HepG2 cells. The test is described as follows: cells. Particulars: for EC50 (cellular antioxidant activity): 1 h. As to the method: Obtained from National Collection of Authenticated Cell Cultural (Shanghai, China), HepG2 cells between 20 and 35 passages were grown in medium (DMEM supplemented with 10% fetal bovine serum, 1% antibiotic–antimycotic solution) in a 5% CO2 incubator at 37 °C.
Cellular antioxidant activity (CAA) was determined according to the method of Wolfe et al.. HepG2 cells were seeded in 96-well plates (6 × 10^4 cells/well) and cultured for 24 h. DCFH-DA working solution (50 µL, 50 µM) and 50 µL of medium with sample (0.005–0.1 mg/mL) were added in the sample treated group. DCFH-DA working solution (50 µL, 50 µM) and sterile water (50 µL) were added to the control group and the blank group. After incubated for 1 h, the cells were washed with PBS. Then, AAPH working solution (100 µL, […]) was added to the sample treated group and the control group, and fresh medium was added to the blank group. Fluorescence values were determined every 5 min for 1 h at an excitation wavelength of 485 nm and a determination wavelength of 528 nm. […] The CAA unit was calculated by the area of fluorescence curve (AUC), as shown in Equation (3). […] The Trolox equivalent (TEAC µM TE/g peptides) was calculated to represent the CAA value. (3) CAA=[1−(AUCt−AUCo)/(AUCc−AUCo)]×100 where AUCt, AUCc, and AUCo were the fluorescence curve area of the test sample, the control, and the blank group, respectively.

The subject of test [2] is HepG2 cells. The format is cell-based. The protocol: HepG2 cells were seeded in 96-well plates (1 × 10^4 cells/well) and cultured for 48 h. To the AAPH damage group, we added 150 µL of fresh medium containing AAPH (final concentration 0.025–25 mM), and to the control group, we added fresh medium without AAPH. After culturing for 24 h, cell viability was determined by the MTT method. HepG2 cells were seeded in 96-well plates (1 × 10^4 cells/well) and cultured for 24 h. To the sample treated group, we added 150 µL of fresh medium containing samples (0.025–0.2 mg/mL). To the control group and AAPH damage group, we added fresh medium without samples. After treating for 24 h, to the sample treated group and AAPH damage group, we added 50 µL of fresh medium containing AAPH (final concentrations of 0.25 and 10 mM). After culturing for 24 h, cell viability was determined.

The test system of test [3] is HepG2 cells. Set-up: method as in 2 sources, ref 23 = [23]; PMID 28764069; doi:10.1016/j.foodchem.2017.05.144; 23. Liang R. Zhang Z. Lin S. Effects of pulsed electric field on intracellular antioxidant activity and antioxidant enzyme regulating capacities of pine nut ( Pinus koraiensis ) peptide QDHCH in HepG2 ||| ref 24 = [24]; PMID 29195889; doi:10.1016/j.foodres.2016.10.023; 24. Wang L. Ding L. Yu Z. Zhang T. Ma S. Liu J. Intracellular ROS scavenging and antioxidant enzyme regulating capacities of corn gluten meal-derived antioxidant peptides in HepG2 cells Food Res. Int. Conditions: related report, pine nut peptide; cited from earlier work. The source says: The principle of CAA is that intracellular lipase degrades the fluorescent probe DCFH-DA to DCFH, which is oxidized to fluorescent DCF by intracellular free radicals under AAPH induction, and the antioxidant peptide can protect the probe from oxidation. […] In related reports, ...

Values after ≈ are worked out from the molar mass of the structure shown. Read-outs that look alike come from different tables or passages of the source. No end group written: not given here.

Regarding `N[C@@H](CCC(=O)N[C@@H](CS)C(=O)NCC(=O)O)C(=O)O` [GSH, Glutathione, reference compound], the “CAA Value” in the test with HepG2 cells [1] (HepG2, Trolox equivalent, Trolox as standard antioxidant) is listed as 4.593 mM TE/g Peptide. Further, the EC50 (commonly the concentration at which the effect is half-maximal) with HepG2 cells [1] (Homo sapiens, HepG2, 1 h, read-out: EC50 (cellular antioxidant activity)) was 30 µg/mL (≈ 97.6 µM). In the test with HepG2 cells [2] (HepG2, AAPH-induced damage (0.25 mM as printed), sample 0.2 mg/mL 24 h then AAPH 24 h, MTT, AAPH damage group 49.51%), the “cell viability, 50% cell viability model” value is on record as 57.60%. Besides, the “cell viability, 80% cell viability model” value with HepG2 cells [2] (HepG2, AAPH-induced damage (10 mM [sic]), sample 0.2 mg/mL 24 h then AAPH 24 h, MTT, AAPH damage group 79.41%) worked out at 92.08%.
Take GGSIT [GGSIT]: the “EC50 (cellular antioxidant activity)” value with HepG2 cells [1] came out at 73 µg/mL. Further, in the test with HepG2 cells [2] (24 h, 0.2 mg/mL), the “cell viability, 50% cell viability model” value is listed as 66.35% and the “cell viability, 80% cell viability model” value was 96.06%.
GGSLT [GGSLT]: in the test with HepG2 cells [1], the “EC50 (cellular antioxidant activity)” value worked out at 64 µg/mL. Moreover, the “cell viability, 50% cell viability model” value in the test on HepG2 cells [2] (24 h, 0.2 mg/mL) worked out at 68.25%.
For the compound NSVAA [NSVAA], the “EC50 (cellular antioxidant activity)” value in the test on HepG2 cells [1] was found to be 95 µg/mL. Further, in the test on HepG2 cells [2] (24 h, 0.2 mg/mL), the “cell viability, 50% cell viability model” value is recorded as 70.55% and the “cell viability, 80% cell viability model” value is 100.09%.
With “QDHCH [pine nut peptide of a related report]”, in the test with HepG2 cells [3], the “EC50 value (cellular antioxidant activity)” value was 130 µg/mL.
Consider SGTAV [SGTAV], for which the “EC50 (cellular antioxidant activity)” value with HepG2 cells [1] is 9 µg/mL. Also, in the test with HepG2 cells [2] (24 h, 0.2 mg/mL), the “cell viability, 50% cell viability model” value is given as 73.61% and the “cell viability, 80% cell viability model” value was found to be 107.43%.
The corresponding values for SPSSS [SPSSS] are 27 µg/mL, 73.52% and 101.09%.
In the case of TGVAS [TGVAS], the “EC50 (cellular antioxidant activity)” value with HepG2 cells [1] stood at 37 µg/mL. Further, the “cell viability, 50% cell viability model” value in the test on HepG2 cells [2] (24 h, 0.2 mg/mL) was 64.69%.
